Reference: US20210290784A1, “POSITRON EMISSION TOMOGRAPHY (PET) RADIOTRACERS FOR IMAGING MACROPHAGE COLONY-STIMULATING FACTOR 1 RECEPTOR (CSF1R) IN NEUROINFLAMMATION” (The Johns Hopkins University, priority 2018, published 2021)

What was measured:
CSF1R = CSF1R (Homo sapiens, UniProt P07333); assay: Postmortem human brain autoradiography; assay type: binding; set-up: from tissue; conditions: for Autoradiography binding, Baseline: inferior parietal cortex slices
Excerpt: Use of human tissues has been approved by the Institutional Review Board of the Johns Hopkins Medical Institutions. […] The slides were exposed to X-ray film and analyzed with outcome expressed as pmol/mm^3 of wet tissue±SD.

[1] = Mouse plasma and brain radiometabolite analysis; assay type: in vivo, mice
Method: The animals were injected IV with 37 MBq (1 mCi) [^11C]CPPC [specific radioactivity=673 GBq/μmol (18.2 Ci/μmol)] and sacrificed by cervical dislocation at 10 min (3 animals) and 30 min (3 animals) after the radiotracer injection. […] Radiometabolites of [^11C]CPPC in the mouse plasma and brain were analyzed using a general HPLC method described above for baboon. Before the HPLC analysis the mouse brain was homogenized in 2 mL of mixture 50% acetonitrile: 50% phosphate buffer (Et3N, H3PO4, pH 7.2). The homogenates were centrifuged (14000 g for 5 min) and supernatants filtered using 0.2 micron filter and filtrate was analyzed by radio-HPLC with phenomenex Gemini C18, 10μ, 4.6×250 mm and 2 mL/min isocratic elution and 50% acetonitrile-50% aqueous triethylamine, c=0.06 M and pH=7.2 as mobile phase. […] The radiometabolites poorly penetrate the blood-brain barrier and their presence in the brain is low (Table 4)

[2] = Whole-body radiation dosimetry in mice, extrapolated to human; assay type: in vivo
Method: Male CD-1 mice were injected with [^11C]CPPC as described above for baseline studies and were euthanized at 10, 30, 45, 60, and 90 min after treatment. The various organs were quickly removed and percentage injected dose (% ID) per organ was determined. The human radiation dosimetry of [^11C]CPPC was extrapolated from the mouse biodistribution data using SAAM II (Simulation Analysis and Modeling II) and OLINDA/EXM software. The data were analyzed commercially (RADAR, Inc).
Radiation dosimetry for [^11C]CPPC was studied in fifteen male CD-1 mice (23-27 g) following our published procedure (Stabin M G, et al. (2005)). A solution of [^11C]CPPC in 0.2 ml of saline (7.4 MBq or 0.2 mCi) was injected as a bolus into the lateral tail vein, and groups of mice (n=3) were euthanized at 10, 30, 45, 60, and 90 min after the radiotracer injection. The lungs, heart, kidneys, liver, spleen, intestine, stomach, and brain were quickly removed and put on ice. One femur and samples of thigh muscle, bone marrow and blood were also collected. The organs were weighed, and the tissue radioactivity was measured with an automated gamma counter (LKB Wallac 1282 CompuGamma CS Universal Gamma Counter). The percent injected dose per organ (% ID/organ) was calculated by comparison with samples of a standard dilution of the initial dose. All measurements were corrected for decay. Resultant values of % ID/organ were fit using the SAAM II software (Foster D M (1998)). Time integrals of activity (Stabin M G and Siegel J A (2003)) were entered into the OLINDA/EXM software (Stabin M G, et al. (2005)), using the adult male model. […] The number of disintegrations in the remainder of body was assumed to be equal to 100% of the activity administered integrated to total decay of ^11C, minus the disintegrations in other body organs.

[3] = two exponential fit of % ID/organ

Sequence of CSF1R (P07333 20-972): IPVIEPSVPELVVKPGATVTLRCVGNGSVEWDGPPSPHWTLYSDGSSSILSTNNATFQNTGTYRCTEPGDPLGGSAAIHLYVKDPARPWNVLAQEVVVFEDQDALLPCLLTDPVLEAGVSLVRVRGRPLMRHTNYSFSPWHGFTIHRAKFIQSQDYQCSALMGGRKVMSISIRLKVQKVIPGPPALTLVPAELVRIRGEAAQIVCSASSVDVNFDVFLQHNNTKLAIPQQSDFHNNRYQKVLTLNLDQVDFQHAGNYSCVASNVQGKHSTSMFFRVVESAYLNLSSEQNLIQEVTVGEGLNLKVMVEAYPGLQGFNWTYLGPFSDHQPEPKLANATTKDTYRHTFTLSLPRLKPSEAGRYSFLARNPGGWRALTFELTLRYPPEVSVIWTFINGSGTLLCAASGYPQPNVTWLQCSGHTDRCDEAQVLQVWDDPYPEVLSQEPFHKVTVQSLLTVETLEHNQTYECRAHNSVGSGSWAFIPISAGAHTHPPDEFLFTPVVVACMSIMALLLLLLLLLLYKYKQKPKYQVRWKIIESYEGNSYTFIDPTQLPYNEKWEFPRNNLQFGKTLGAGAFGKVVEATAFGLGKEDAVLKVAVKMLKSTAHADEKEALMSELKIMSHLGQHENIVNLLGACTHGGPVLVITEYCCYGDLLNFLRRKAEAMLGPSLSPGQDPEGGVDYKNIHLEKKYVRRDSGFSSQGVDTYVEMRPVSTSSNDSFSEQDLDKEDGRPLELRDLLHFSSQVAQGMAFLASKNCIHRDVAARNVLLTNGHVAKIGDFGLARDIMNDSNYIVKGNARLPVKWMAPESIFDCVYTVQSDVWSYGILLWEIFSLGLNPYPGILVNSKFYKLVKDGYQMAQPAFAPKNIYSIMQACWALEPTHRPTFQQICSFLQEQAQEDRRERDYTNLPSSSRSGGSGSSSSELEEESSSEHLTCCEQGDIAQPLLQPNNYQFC

Structure (SMILES): [11CH3]N1CCN(c2ccc(NC(=O)c3ccc(C#N)o3)c(N3CCCCC3)c2)CC1 [[^11C]CPPC, 5-cyano-N-(4-(4-[^11C]methylpiperazin-1-yl)-2-(piperidin-1-yl)phenyl)furan-2-carboxamide]
- increase of radiotracer binding in AD brain vs. control brain slices (CSF1R; baseline autoradiography): 75-99%
- Autoradiography binding, Blocking with unlabeled CPPC (CSF1R; sample 1-AD): 4.72 ± 1.07 pmol/mm3
- Autoradiography binding, Baseline (CSF1R; sample 1-AD): 8.18 ± 0.68 pmol/mm3
- Autoradiography binding, Blocking with unlabeled CPPC (CSF1R; sample 2-AD): 2.67 ± 0.53 pmol/mm3
- Autoradiography binding, Baseline (CSF1R; sample 2-AD): 7.20 ± 1.55 pmol/mm3
- Autoradiography binding, Blocking with unlabeled CPPC (CSF1R; sample 3-AD): 3.73 ± 1.07 pmol/mm3
- Autoradiography binding, Baseline (CSF1R; sample 3-AD): 7.43 ± 1.59 pmol/mm3
- Autoradiography binding, Blocking with unlabeled CPPC (CSF1R; sample 4-control): 2.86 ± 1.06 pmol/mm3
- Autoradiography binding, Baseline (CSF1R; sample 4-control): 4.11 ± 1.14 pmol/mm3
- Brain Parent [^11C]CPPC, % ([1]; 10 min): 96.6 ± 0.1%
- Plasma Parent [^11C]CPPC, % ([1]; 10 min): 70.2 ± 2.2%
- Brain Parent [^11C]CPPC, % ([1]; 30 min): 95.1 ± 1.6%
- Plasma Parent [^11C]CPPC, % ([1]; 30 min): 39.7 ± 1.3%
- Activity observed in the intestines ([2]; CD-1 mice): ~35%
- radiation burden to a human subject vs FDA limit ([2]; proposed dose of 740 MBq (20 mCi)): < 5 Rem
- fitted metabolic model, Brain, first component % [2, 3]: 3.83%
- fitted metabolic model, Brain, first component T-bio [2, 3]: 0.302 h
- fitted metabolic model, Brain, second component % [2, 3]: 0.38%
- fitted metabolic model, Brain, second component T-bio [2, 3]: ∞
- fitted metabolic model, Heart, first component % [2, 3]: 1.00%
- fitted metabolic model, Heart, first component T-bio [2, 3]: 0.272 h
- fitted metabolic model, Heart, second component % [2, 3]: 0.14%
- fitted metabolic model, Heart, second component T-bio [2, 3]: ∞
- fitted metabolic model, Kidneys, first component % [2, 3]: 8.32%
- fitted metabolic model, Kidneys, first component T-bio [2, 3]: 0.297 h
- fitted metabolic model, Kidneys, second component % [2, 3]: 1.52%
- fitted metabolic model, Kidneys, second component T-bio [2, 3]: ∞
- fitted metabolic model, Liver, first component % [2, 3]: 97.6%
- fitted metabolic model, Liver, first component T-bio [2, 3]: 0.764 h
- fitted metabolic model, Liver, second component % [2, 3]: −100%
- fitted metabolic model, Liver, second component T-bio [2, 3]: 0.335 h
- fitted metabolic model, Lungs, first component % [2, 3]: 8.27%
- fitted metabolic model, Lungs, first component T-bio [2, 3]: 0.159 h
- fitted metabolic model, Lungs, second component % [2, 3]: 1.53%
- fitted metabolic model, Lungs, second component T-bio [2, 3]: 2.27 h
- fitted metabolic model, Spleen, first component % [2, 3]: 1.43%
- fitted metabolic model, Spleen, first component T-bio [2, 3]: 0.823 h
- fitted metabolic model, Spleen, second component % [2, 3]: −1.24%
- fitted metabolic model, Spleen, second component T-bio [2, 3]: 0.145 h
